{"source": "patent US20020115678A1", "about": "“Compounds, compositions and methods for treating antibiotic-resistant infections” (priority 1996, published 2002)", "key": {"[1]": {"system": "Staphylococcus aureus methicillin-resistant wild type T67738", "assay": "Susceptibility test (MIC, microtiter serial dilution), methicillin-resistant S. aureus", "type": "cell-based", "conditions": "MIC by serial dilution in Mueller-Hinton broth", "experimental": "(§1) The strains were streaked on blood agar plates (trypticase soy broth containing 5% sheep cells). A single colony was isolated and grown in Mueller-Hinton Broth (MHB) as recommended by the national Committee for Clinical Laboratory Standards for rapidly growing bacteria. Candida species and related fungi were isolated in a similar manner on brain-heart infusion agar (BHI).\n(§2) The antibiotic susceptibility profile of each strain was determined using standard microtiter dilution plates obtained from the Clinical Microbiology Laboratory at Ohio State University Hospitals. The Inocula were prepared by suspending a 4 hour log phase growth in MHB visually equal in turbidity of an 0.5 McFarland standard. Inocula were further diluted and added to microdilution trays to achieve a final density of approximately 1×10^5 CFU/ml. The trays were incubated for 16 to 20 hours at 35° C. The highest dilution at which wells remained clear was considered to be the minimum inhibitory concentration (MIC).\n(§3) The MIC and minimum bacterial concentration (MBC) of the strains to the active agents were determined by two-fold dilutions in Mueller-Hinton broth. Susceptibility tests for ATCC-obtained microorganisms and clincal isolates of gram positive bacteria including methicillin-susceptible and resistant Staphylococci, Streptococci, Pneumococci and gram negative bacteria, including Enterobacteriaceae, Pseudomonas, Hemophilus and Neisseria, were performed in microtiter plates as described above. The MIC and MBC were determined after 48 hours incubation at 35-37° C. A sample of 0.01 ml was taken from each clear well at the MIC end-point and streaked on trypticase soy agar plates. After 24 hours incubation, the number of colonies was counted. The amount of the agent required to kill 99.9% of the bacteria was determined as the MBC. Susceptibility tests for ATCC isolates of Candida and other fungi were performed in BHI broth according to the NCCLS method. Two ml of MHB containing serial dilutions of the agents compounds were added to 13×100 mm tubes. An inoculum of 0.1 ml (prepared as described above) was then added to each tube. The final inoculum was approximately […]. The tubes were incubated at 35° C. in ambient air and read at 24 hours. The highest dilution at which the tubes remained clear was considered to be the MIC.\n(§4) The MBC was determined as follows: After 48 hours incubation, tubes without visible growth were vortexed. A sample of 0.01 ml was taken from each tube and streaked on trypticase soy agar plates. After 24 hours, incubation, the number of colonies was counted. The amount of agent required to kill 99.9% of bacterial inoculum in the inoculum was determined as the MBC. Susceptibility tests for Mycobacteria were performed according to standard methods at the national Institutes of Health.\n(§5) Compounds of the invention were dissolved in 1 ml of methanol and stored in aliquots at −70° C. They were diluted in Mueller-Hinton broth for final screening. Compositions were tested in 0.1 ml volumes by serial dilution in microtiter plates against Staphylococcus aureus methicillin-sensitive ATCC 29213 and the methicillin-resistant wild type T67738, as described above. The T67738 was resistant to most antimicrobial drugs, including ciprofloxacin."}, "[2]": {"system": "Staphylococcus aureus methicillin-sensitive ATCC 29213", "assay": "Susceptibility test (MIC, microtiter serial dilution), methicillin-sensitive S. aureus", "type": "cell-based", "conditions": "methicillin-sensitive S. aureus ATCC 29213; MIC by serial dilution in Mueller-Hinton broth", "experimental": "as §1, §2, §3, §4, §5"}, "Mycobacteria": {"system": "Mycobacteria", "assay": "Susceptibility tests for Mycobacteria (standard methods, National Institutes of Health)", "type": "cell-based", "experimental": "as §4"}, "bacterial pathogens": {"system": "bacterial pathogens", "conditions": "background statement; cited from earlier work"}}, "data": [{"smiles": "OC(c1cc(-c2ccc(Cl)cc2)nc2ccccc12)C1CCCCN1", "note": "(centres unmarked) [#7929]", "values": [{"measurement": "Effective Concentration S. aureous Resist.", "setting": "[1]", "result": 6.25, "unit": "µg/mL"}, {"measurement": "Effective Concentration S. aureous Sens.", "setting": "[2]", "result": 6.25, "unit": "µg/mL"}]}, {"smiles": "OC(c1cc(-c2ccc(C(F)(F)F)cc2)nc(-c2ccc(C(F)(F)F)cc2)c1)C1CCCCN1", "note": "(centres unmarked) [#153141]", "values": [{"measurement": "Effective Concentration Mycobacteria", "setting": "Mycobacteria", "result": 0.5, "unit": "µg/mL"}]}, {"smiles": "CCCC(CCC)NCC(O)c1cc(-c2ccc(Cl)cc2)nc(-c2ccc(Cl)cc2)c1", "note": "(centres unmarked) [#153136]", "values": [{"measurement": "Effective Concentration S. aureous Resist.", "setting": "[1]", "result": 3.0, "unit": "µg/mL"}]}, {"smiles": "CCC1CN2CCC1CC2C(O)c1ccnc2ccc(OC)cc12", "note": "(centres unmarked) [#112312]", "values": [{"measurement": "Effective Concentration Mycobacteria", "setting": "Mycobacteria", "result": 128, "unit": "µg/mL"}, {"measurement": "Effective Concentration S. aureous Resist.", "setting": "[1]", "result": 1.56, "unit": "µg/mL"}, {"measurement": "Effective Concentration S. aureous Sens.", "setting": "[2]", "result": 1.56, "unit": "µg/mL"}]}, {"smiles": "COc1ccc2nc(-c3ccc(Cl)c(Cl)c3)cc(C(O)C3CCCCN3)c2c1", "note": "(centres unmarked) [#259398]", "values": [{"measurement": "Effective Concentration S. aureous Resist.", "setting": "[1]", "result": 1.56, "unit": "µg/mL"}, {"measurement": "Effective Concentration S. aureous Sens.", "setting": "[2]", "result": 1.56, "unit": "µg/mL"}]}, {"smiles": "O=C(c1cc(-c2ccccc2)nc2c(Cl)cc(Cl)cc12)C1CCCCN1", "note": "(centres unmarked) [#169446]", "values": [{"measurement": "Effective Concentration Mycobacteria", "setting": "Mycobacteria", "result": 2, "unit": "µg/mL"}, {"measurement": "Effective Concentration S. aureous Resist.", "setting": "[1]", "result": 1.6, "unit": "µg/mL"}, {"measurement": "Effective Concentration S. aureous Sens.", "setting": "[2]", "result": 1.6, "unit": "µg/mL"}]}, {"smiles": "OC(c1cc(-c2ccc(Cl)cc2)nc2c(Cl)cc(Cl)cc12)C1CCCCN1", "note": "(centres unmarked) [#7936]", "values": [{"measurement": "Effective Concentration S. aureous Resist.", "setting": "[1]", "result": "<0.8", "unit": "µg/mL"}, {"measurement": "Effective Concentration S. aureous Sens.", "setting": "[2]", "result": "<0.8", "unit": "µg/mL"}]}, {"smiles": "OC(c1cc(-c2ccccc2)nc2c(Cl)cc(Cl)cc12)C1CCCCN1", "note": "(centres unmarked) [#7930]", "values": [{"measurement": "Effective Concentration Mycobacteria", "setting": "Mycobacteria", "result": 2, "unit": "µg/mL"}, {"measurement": "Effective Concentration S. aureous Resist.", "setting": "[1]", "result": 1.6, "unit": "µg/mL"}, {"measurement": "Effective Concentration S. aureous Sens.", "setting": "[2]", "result": "<.08 µg/mL"}]}, {"smiles": "OC(c1cc(C(F)(F)F)nc2c(C(F)(F)F)cccc12)C1CCCCN1", "note": "(centres unmarked) [Mefloquine]", "values": [{"measurement": "activity against bacterial pathogens in vitro", "setting": "bacterial pathogens", "result": "some activity"}]}, {"smiles": "COc1cc(C(F)(F)F)c2nc(C(F)(F)F)cc(C(O)C3CCCCN3)c2c1", "note": "(centres unmarked) [#159314]", "values": [{"measurement": "Effective Concentration S. aureous Resist.", "setting": "[1]", "result": 3.1, "unit": "µg/mL"}, {"measurement": "Effective Concentration S. aureous Sens.", "setting": "[2]", "result": 6.25, "unit": "µg/mL"}]}]}
